Test results from patent US12258327B2, “5-membered heteroaryl-containing aminopyridine compounds as EGFR inhibitors” (YUHAN CORPORATION, priority 2021, dated 2025).
pIC50: −log10 of the molar value. Like-named read-outs stand apart in the source and are kept apart here.

Assays:
[1] = molecular target: EGFR L858R/T790M/C797S (Homo sapiens, UniProt P00533, C797S/L858R/T790M); experiment: Biochemical EGFR kinase assay (Lance Ultra TR-FRET), triple mutant L858R/T790M/C797S
In short: (§1)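 Kinase activity is measured by TR-FRET phosphopeptide detection. Compounds span 0.003 μM to 10 μM; the 1 h reaction at room temperature is quenched with EDTA, then labelled antibody (2 nM) is incubated 60 min before reading.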

[2] = molecular target: EGFR L858R/C797S (Homo sapiens, UniProt P00533, C797S/L858R); experiment: Biochemical EGFR kinase assay (Lance Ultra TR-FRET), double mutant L858R/C797S
In short: as §1

[3] = molecular target: EGFR wildtype (WT) (Homo sapiens, UniProt P00533); experiment: Biochemical EGFR kinase assay (Lance Ultra TR-FRET), wildtype
Chain of EGFR wildtype (WT) (P00533 25-1210): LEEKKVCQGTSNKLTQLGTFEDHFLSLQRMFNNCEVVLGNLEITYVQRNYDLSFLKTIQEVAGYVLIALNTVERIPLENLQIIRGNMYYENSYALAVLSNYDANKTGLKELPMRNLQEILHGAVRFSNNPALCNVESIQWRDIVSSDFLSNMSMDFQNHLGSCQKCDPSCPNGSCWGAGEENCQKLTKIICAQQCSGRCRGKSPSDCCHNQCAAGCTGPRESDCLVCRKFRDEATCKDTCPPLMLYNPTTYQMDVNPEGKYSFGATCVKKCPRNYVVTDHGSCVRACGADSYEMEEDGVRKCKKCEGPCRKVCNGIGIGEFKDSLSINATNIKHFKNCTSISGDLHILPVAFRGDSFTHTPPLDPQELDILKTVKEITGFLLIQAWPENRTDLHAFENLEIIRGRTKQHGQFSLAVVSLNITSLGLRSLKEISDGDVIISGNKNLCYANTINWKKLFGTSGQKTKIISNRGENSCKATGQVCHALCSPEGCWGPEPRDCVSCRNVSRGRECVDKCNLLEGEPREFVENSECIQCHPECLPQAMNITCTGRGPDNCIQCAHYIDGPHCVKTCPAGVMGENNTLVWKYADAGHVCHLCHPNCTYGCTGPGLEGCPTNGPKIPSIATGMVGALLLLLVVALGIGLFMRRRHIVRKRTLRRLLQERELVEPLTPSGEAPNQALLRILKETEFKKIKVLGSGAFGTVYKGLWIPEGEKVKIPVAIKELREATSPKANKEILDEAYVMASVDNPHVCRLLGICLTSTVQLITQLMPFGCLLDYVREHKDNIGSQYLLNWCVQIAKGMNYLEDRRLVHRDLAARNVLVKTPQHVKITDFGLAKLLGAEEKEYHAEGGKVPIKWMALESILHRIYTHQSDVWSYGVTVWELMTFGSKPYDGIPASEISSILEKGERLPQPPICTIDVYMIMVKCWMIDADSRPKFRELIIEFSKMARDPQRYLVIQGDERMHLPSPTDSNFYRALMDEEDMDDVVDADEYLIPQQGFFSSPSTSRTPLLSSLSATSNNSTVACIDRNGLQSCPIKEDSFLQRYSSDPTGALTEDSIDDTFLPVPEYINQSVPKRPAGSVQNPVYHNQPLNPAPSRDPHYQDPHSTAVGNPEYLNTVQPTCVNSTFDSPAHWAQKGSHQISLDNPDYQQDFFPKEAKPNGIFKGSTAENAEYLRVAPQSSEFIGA
In short: as §1

[4] = molecular target: EGFR del19/C797S (Homo sapiens, UniProt P00533, C797S/DEL746-750); experiment: Biochemical EGFR kinase assay (Lance Ultra TR-FRET), double mutant del19/C797S
Chain of EGFR del19/C797S (P00533 with tags, fused parts or gaps DEL746-750/C797S): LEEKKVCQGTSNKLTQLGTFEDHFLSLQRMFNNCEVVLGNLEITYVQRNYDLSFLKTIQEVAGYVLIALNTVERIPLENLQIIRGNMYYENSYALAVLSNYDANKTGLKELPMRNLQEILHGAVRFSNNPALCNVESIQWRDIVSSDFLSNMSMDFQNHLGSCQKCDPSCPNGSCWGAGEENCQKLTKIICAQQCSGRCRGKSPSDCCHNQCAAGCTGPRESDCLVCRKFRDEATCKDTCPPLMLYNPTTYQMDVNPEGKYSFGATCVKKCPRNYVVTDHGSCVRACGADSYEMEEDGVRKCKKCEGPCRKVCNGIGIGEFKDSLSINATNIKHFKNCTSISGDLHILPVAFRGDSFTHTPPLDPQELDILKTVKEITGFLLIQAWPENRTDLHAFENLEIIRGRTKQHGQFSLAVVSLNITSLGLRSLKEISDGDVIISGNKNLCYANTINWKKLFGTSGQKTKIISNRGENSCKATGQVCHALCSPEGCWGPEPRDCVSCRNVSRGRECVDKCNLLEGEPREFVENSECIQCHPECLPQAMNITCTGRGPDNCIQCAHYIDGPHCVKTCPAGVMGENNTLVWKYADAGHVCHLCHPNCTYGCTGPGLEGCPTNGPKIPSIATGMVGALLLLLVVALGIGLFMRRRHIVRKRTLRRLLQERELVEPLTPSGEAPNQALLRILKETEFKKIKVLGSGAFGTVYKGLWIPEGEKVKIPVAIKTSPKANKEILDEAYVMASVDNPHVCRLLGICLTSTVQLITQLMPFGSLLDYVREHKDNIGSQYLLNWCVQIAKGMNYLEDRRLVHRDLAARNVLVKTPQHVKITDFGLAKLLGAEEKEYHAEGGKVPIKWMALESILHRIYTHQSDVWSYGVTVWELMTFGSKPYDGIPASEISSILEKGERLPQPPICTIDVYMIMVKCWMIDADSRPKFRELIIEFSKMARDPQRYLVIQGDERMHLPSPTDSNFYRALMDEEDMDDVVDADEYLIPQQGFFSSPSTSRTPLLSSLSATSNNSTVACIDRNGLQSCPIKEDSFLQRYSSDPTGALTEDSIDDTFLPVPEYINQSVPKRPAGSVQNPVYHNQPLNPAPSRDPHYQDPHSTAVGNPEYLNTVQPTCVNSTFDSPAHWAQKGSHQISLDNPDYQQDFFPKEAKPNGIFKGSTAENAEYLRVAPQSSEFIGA
In short: as §1

[5] = molecular target: EGFR del19/T790M/C797S (Homo sapiens, UniProt P00533, C797S/DEL746-750/T790M); experiment: Biochemical EGFR kinase assay (Lance Ultra TR-FRET), triple mutant del19/T790M/C797S
Chain of EGFR del19/T790M/C797S (P00533 with tags, fused parts or gaps DEL746-750/T790M/C797S): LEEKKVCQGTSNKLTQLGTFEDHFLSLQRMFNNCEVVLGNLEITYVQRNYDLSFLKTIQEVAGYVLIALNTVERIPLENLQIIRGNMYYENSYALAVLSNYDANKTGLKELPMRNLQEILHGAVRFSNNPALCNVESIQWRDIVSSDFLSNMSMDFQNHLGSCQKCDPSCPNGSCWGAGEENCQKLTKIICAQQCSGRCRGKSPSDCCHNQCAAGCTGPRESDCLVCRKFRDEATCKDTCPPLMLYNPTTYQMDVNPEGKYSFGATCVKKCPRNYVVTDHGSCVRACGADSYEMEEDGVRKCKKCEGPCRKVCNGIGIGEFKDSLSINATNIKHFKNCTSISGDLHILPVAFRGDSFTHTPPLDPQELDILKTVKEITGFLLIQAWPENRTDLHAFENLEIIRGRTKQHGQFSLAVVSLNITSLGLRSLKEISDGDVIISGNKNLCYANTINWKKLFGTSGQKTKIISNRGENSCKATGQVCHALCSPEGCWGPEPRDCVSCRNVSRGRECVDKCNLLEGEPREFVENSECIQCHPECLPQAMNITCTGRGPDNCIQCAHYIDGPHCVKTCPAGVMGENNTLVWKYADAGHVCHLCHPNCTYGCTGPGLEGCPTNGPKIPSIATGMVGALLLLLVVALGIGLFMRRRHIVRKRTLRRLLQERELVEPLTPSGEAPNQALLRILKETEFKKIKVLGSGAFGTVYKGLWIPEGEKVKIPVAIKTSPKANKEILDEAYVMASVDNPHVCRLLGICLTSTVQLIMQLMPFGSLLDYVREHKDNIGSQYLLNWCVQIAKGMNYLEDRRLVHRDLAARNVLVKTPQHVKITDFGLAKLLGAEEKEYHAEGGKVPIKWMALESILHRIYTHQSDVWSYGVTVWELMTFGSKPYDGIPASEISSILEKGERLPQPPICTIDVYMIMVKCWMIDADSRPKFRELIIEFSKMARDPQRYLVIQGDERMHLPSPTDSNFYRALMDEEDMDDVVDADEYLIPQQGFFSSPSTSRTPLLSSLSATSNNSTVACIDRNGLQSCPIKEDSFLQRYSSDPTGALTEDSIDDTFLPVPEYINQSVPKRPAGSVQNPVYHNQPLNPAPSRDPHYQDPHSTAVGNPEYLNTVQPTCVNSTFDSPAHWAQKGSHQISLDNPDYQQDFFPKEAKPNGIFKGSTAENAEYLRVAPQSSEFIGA
In short: as §1

[6] = IC50 L858R/T790M/C797S (nM) 100 μM ATP, 100 μM ATP
[7] = Km ATP, read-out: IC50 L858R/T790M/C797S (nM) Km ATP
[8] = IC50 L858R/C797S (nM) 100 μM ATP, 100 μM ATP
[9] = Km ATP, read-out: IC50 L858R/C797S (nM) Km ATP
[10] = IC50 WT (nM) 100 μM ATP, 100 μM ATP
[11] = Km ATP, read-out: IC50 WT (nM) Km ATP
[12] = IC50 del19/C797S (nM) 100 μM ATP, 100 μM ATP
[13] = Km ATP, read-out: IC50 del19/C797S (nM) Km ATP
[14] = IC50 del19/T790M/C797S (nM) 100 μM ATP, 100 μM ATP
[15] = Km ATP, read-out: IC50 del19/T790M/C797S (nM) Km ATP
[16] = Km ATP, read-out: IC50 L858R/T790M/C797S, Km ATP
[17] = Km ATP, read-out: IC50 L858R/C797S, Km ATP
[18] = Km ATP, read-out: IC50 WT, Km ATP
[19] = Km ATP, read-out: IC50 del19/C797S, Km ATP
[20] = Km ATP, read-out: IC50 del19/T790M/C797S, Km ATP

Chain of EGFR L858R/T790M/C797S (P00533 25-1210 T790M/C797S/L858R): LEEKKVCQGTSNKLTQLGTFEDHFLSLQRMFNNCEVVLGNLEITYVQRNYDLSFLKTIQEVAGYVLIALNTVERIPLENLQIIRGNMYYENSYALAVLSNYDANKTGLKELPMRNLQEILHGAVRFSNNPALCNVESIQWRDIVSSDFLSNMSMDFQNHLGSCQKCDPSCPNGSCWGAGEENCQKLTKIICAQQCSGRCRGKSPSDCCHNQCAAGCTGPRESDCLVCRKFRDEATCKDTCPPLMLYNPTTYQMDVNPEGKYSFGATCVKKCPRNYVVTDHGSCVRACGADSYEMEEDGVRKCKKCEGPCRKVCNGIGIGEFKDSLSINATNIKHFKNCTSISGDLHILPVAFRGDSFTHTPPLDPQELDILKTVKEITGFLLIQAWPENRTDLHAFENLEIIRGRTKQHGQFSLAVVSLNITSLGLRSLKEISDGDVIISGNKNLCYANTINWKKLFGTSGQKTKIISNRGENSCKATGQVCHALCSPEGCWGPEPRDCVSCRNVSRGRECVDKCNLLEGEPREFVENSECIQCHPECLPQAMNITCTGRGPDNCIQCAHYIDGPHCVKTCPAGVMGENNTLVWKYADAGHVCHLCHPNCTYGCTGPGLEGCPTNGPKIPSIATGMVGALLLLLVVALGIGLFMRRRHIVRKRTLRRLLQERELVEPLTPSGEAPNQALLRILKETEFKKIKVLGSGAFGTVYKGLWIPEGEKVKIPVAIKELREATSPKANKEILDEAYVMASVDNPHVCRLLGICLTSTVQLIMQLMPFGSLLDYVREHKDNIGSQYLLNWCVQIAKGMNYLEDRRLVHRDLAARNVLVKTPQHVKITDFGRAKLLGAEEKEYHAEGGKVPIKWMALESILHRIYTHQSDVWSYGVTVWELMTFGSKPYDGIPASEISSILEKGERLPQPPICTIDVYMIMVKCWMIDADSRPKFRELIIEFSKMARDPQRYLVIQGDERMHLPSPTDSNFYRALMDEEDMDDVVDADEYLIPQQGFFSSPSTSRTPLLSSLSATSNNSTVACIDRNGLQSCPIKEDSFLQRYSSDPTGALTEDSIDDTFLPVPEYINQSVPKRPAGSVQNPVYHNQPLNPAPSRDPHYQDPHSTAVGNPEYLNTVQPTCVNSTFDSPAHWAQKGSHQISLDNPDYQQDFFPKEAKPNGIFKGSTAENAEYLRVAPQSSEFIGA

SMILES | IC50 [1, 7] [nM] | IC50 [2, 8] [nM] | IC50 [2, 9] [nM] | IC50 [3, 10] [nM] | IC50 [3, 11] [nM] | IC50 [4, 12] [nM] | IC50 [4, 13] [nM] | IC50 [5, 14] [nM] | IC50 [5, 15] [nM] | other results
O=S(=O)(C1CC1)n1cc(-c2nccc(Nc3cc(N[C@H]4CC[C@@H](CO)CC4)c(-c4ccn(C5COC5)n4)cn3)n2)cn1 [Example 282, ((1s,4s)-4-((2-((2-(1-(Cyclopropylsulfonyl)-1H-pyrazol-4-yl)pyrimidin-4-yl)amino)-5-(1-(oxetan-3-yl)-1H-pyrazol-3-yl)pyridin-4-yl)amino)cyclohexyl)methanol] | 0.1 | 0.7 | 0.1 | 370 | 0.6 | 0.5 | 0.1 | 0.3 | 0.3 | IC50 [1, 6]: 0.3 nM
Cn1nc(-c2cnc(Nc3ccnc(-c4cnn(CC(F)F)c4)c3)nc2N[C@H]2CC[C@@](C)(O)CC2)cc1C(F)(F)F [Example 361, (1s,4s)-4-((2-((2-(1-(2,2-Difluoroethyl)-1H-pyrazol-4-yl)pyridin-4-yl)amino)-5-(1-methyl-5-(trifluoromethyl)-1H-pyrazol-3-yl)pyrimidin-4-yl)amino)-1-methylcyclohexan-1-ol] | – | – | – | – | – | – | – | – | – | pIC50 [1, 16]: 8.96; pIC50 [2, 17]: 7.70; pIC50 [3, 18]: 6.16; pIC50 [4, 19]: 7.85; pIC50 [5, 20]: 9.30
C[C@]1(O)CC[C@@H](Nc2cc(Nc3ccnc(-c4cnn(CC(F)F)c4)n3)ncc2-c2ccn(C(F)(F)F)n2)CC1 [Example 340, (1s,4s)-4-((2-((2-(1-(2,2-Difluoroethyl)-1H-pyrazol-4-yl)pyrimidin-4-yl)amino)-5-(1-(trifluoromethyl)-1H-pyrazol-3-yl)pyridin-4-yl)amino)-1-methylcyclohexan-1-ol] | – | – | – | – | – | – | – | – | – | pIC50 [1, 16]: 9.52; pIC50 [2, 17]: 8.17; pIC50 [3, 18]: 6.76; pIC50 [4, 19]: 7.67; pIC50 [5, 20]: 9.30
FC(F)Cn1cc(-c2nccc(Nc3cc(NC4CCCC(F)C4)c(-c4ccn(C(F)F)n4)cn3)n2)cn1 (centres unmarked) [Example 180, N^2-(2-(1-(2,2-Difluoroethyl)-1H-pyrazol-4-yl)pyrimidin-4-yl)-5-(1-(difluoromethyl)-1H-pyrazol-3-yl)-N^4-(3-fluorocyclohexyl)pyridine-2,4-diamine] | 1.1 | – | 23.2 | – | 418 | – | 410 | – | 1.3 | –
CCS(=O)(=O)n1ccc(-c2nccc(Nc3cc(N[C@H]4CC[C@@](C)(O)CC4)c(-c4ccn(C(F)F)n4)cn3)n2)n1 [Example 309, (1s,4s)-4-((5-(1-(Difluoromethyl)-1H-pyrazol-3-yl)-2-((2-(1-(ethylsulfonyl)-1H-pyrazol-3-yl)pyrimidin-4-yl)amino)pyridin-4-yl)amino)-1-methylcyclohexan-1-ol] | 4.9 | > 10000 | 42.9 | > 10000 | 5.5 | 343 | 460 | 3.8 | 4.4 | IC50 [1, 6]: 29.9 nM
O=S(=O)(C1CC1)n1cc(-c2nccc(Nc3cc(N[C@H]4CC[C@@H](CN5CCC5)CC4)c(-c4ccn(C(F)F)n4)cn3)n2)cn1 [Example 208, N^4-((1s,4s)-4-(Azetidin-1-ylmethyl)cyclohexyl)-N^2-(2-(1-(cyclopropylsulfonyl)-1H-pyrazol-4-yl)pyrimidin-4-yl)-5-(1-(difluoromethyl)-1H-pyrazol-3-yl)pyridine-2,4-diamine] | 0.1 | 0.2 | 0.2 | 128 | 0.6 | 0.2 | 0.2 | 0.3 | 0.3 | IC50 [1, 6]: 0.1 nM
OCC[C@H]1CC[C@@H](Nc2cc(Nc3ccnc(-c4cnn(CC(F)F)c4)n3)ncc2-c2ccn(C(F)F)n2)CC1 [Example 146, 2-((1s,4s)-4-((2-((2-(1-(2,2-Difluoroethyl)-1H-pyrazol-4-yl)pyrimidin-4-yl)amino)-5-(1-(difluoromethyl)-1H-pyrazol-3-yl)pyridin-4-yl)amino)cyclohexyl)ethan-1-ol] | 0.4 | – | 4.7 | – | 19.9 | – | 10.8 | – | 1.1 | –
CC(=O)N1CC=C(c2nccc(Nc3cc(N[C@H]4CC[C@@](C)(O)CC4)c(-c4ccn(C(F)F)n4)cn3)n2)CC1 [Example 159, 1-(4-(4-((5-(1-(Difluoromethyl)-1H-pyrazol-3-yl)-4-(((1s,4s)-4-hydroxy-4-methylcyclohexyl)amino)pyridin-2-yl)amino)pyrimidin-2-yl)-3,6-dihydropyridin-1(2H)-yl)ethan-1-one] | 11.7 | – | 291 | – | 327 | – | 2050 | – | 19.2 | –
O=S(=O)(C1CC1)n1cc(-c2nccc(Nc3cc(N[C@H]4CC[C@@H](F)CC4)c(-c4ccn(CC(F)(F)F)n4)cn3)n2)cn1 [Example 305, N^2-(2-(1-(Cyclopropylsulfonyl)-1H-pyrazol-4-yl)pyrimidin-4-yl)-N^4-((1s,4s)-4-fluorocyclohexyl)-5-(1-(2,2,2-trifluoroethyl)-1H-pyrazol-3-yl)pyridine-2,4-diamine] | 5.3 | – | 12 | – | 853 | – | 67.7 | – | 8 | –
O=S(=O)(C1CC1)n1cc(-c2nccc(Nc3cc(N[C@H]4C[C@@H](CO)C4)c(-c4ccn(C(F)F)n4)cn3)n2)cn1 [Example 377, ((1s,3s)-3-((2-((2-(1-(Cyclopropylsulfonyl)-1H-pyrazol-4-yl)pyrimidin-4-yl)amino)-5-(1-(difluoromethyl)-1H-pyrazol-3-yl)pyridin-4-yl)amino)cyclobutyl)methanol] | – | – | – | – | – | – | – | – | – | pIC50 ([1]; IC50 L858R/T790M/C797S, 100 μM ATP): 9.15; pIC50 [1, 16]: 10.00; pIC50 ([2]; IC50 L858R/C797S, 100 μM ATP): 6.76; pIC50 [2, 17]: 8.24; pIC50 ([3]; IC50 WT, 100 μM ATP): < 5.00; pIC50 [3, 18]: 7.01; pIC50 ([4]; IC50 del19/C797S, 100 μM ATP): 8.24; pIC50 [4, 19]: 8.38; pIC50 ([5]; IC50 del19/T790M/C797S, 100 μM ATP): 9.40; pIC50 [5, 20]: 9.70
CC(C)(CO)Cn1cc(-c2nccc(Nc3cc(N[C@H]4CC[C@@](C)(O)CC4)c(-c4ccn(C(F)F)n4)cn3)n2)cn1 [Example 173, (1s,4s)-4-((5-(1-(Difluoromethyl)-1H-pyrazol-3-yl)-2-((2-(1-(3-hydroxy-2,2-dimethylpropyl)-1H-pyrazol-4-yl)pyrimidin-4-yl)amino)pyridin-4-yl)amino)-1-methylcyclohexan-1-ol] | 0.9 | – | 107 | – | 16.7 | – | 333 | – | 3.9 | –
O=S(=O)(C1CC1)n1cc(-c2nccc(Nc3cc(OC4CCC(O)C4)c(-c4ccn(C(F)F)n4)cn3)n2)cn1 (centres unmarked) [Example 67, 3-((2-((2-(1-(Cyclopropylsulfonyl)-1H-pyrazol-4-yl)pyrimidin-4-yl)amino)-5-(1-(difluoromethyl)-1H-pyrazol-3-yl)pyridin-4-yl)oxy)cyclopentan-1-ol] | 3.8 | 596 | 23.5 | > 10000 | 336 | 111 | 111 | 3.6 | 3.4 | IC50 [1, 6]: 15.7 nM
O=S(=O)(C1CC1)n1cc(-c2nccc(Nc3cc(NC4CCC(F)CC4)c(-c4ccn(C(F)F)n4)cn3)n2)cn1 (centres unmarked) [Example 214, N^2-(2-(1-(Cyclopropylsulfonyl)-1H-pyrazol-4-yl)pyrimidin-4-yl)-5-(1-(difluoromethyl)-1H-pyrazol-3-yl)-N^4-(4-fluorocyclohexyl)pyridine-2,4-diamine] | 3.1 | – | 3.4 | – | 45.2 | – | 9.9 | – | 5.2 | –
O=S(=O)(C1CC1)n1cc(-c2nccc(Nc3cc(N[C@H]4CC[C@H](O)C4)c(-c4ccn(C(F)F)n4)cn3)n2)cn1 [Example 20, (1S,3S)-3-((2-((2-(1-(Cyclopropylsulfonyl)-1H-pyrazol-4-yl)pyrimidin-4-yl)amino)-5-(1-(difluoromethyl)-1H-pyrazol-3-yl)pyridin-4-yl)amino)cyclopentan-1-ol] | 0.2 | 51.9 | 3.1 | > 10000 | 21.1 | 3.4 | 1 | 0.9 | 0.3 | –
COCC#Cc1nccc(Nc2cc(NC3CCC(C)(O)CC3)c(-c3ccn(C(F)F)n3)cn2)n1 (centres unmarked) [Example 104, (1s,4s)-4-((5-(1-(Difluoromethyl)-1H-pyrazol-3-yl)-2-((2-(3-methoxyprop-1-yn-1-yl)pyrimidin-4-yl)amino)pyridin-4-yl)amino)-1-methylcyclohexan-1-ol] | 5.9 | – | 15.6 | – | 984 | – | 949 | – | 4.3 | –
